Marks after values point to notes of the source that are not given here.
Assays:
castrated male rats = assay: Sexual behaviour in castrated male rats (preliminary); format: in vivo, rat
Method: (§1) Male Wistar rats (12 months old; sexually experienced) were injected i.p. every second day in a balanced order with different doses of the compounds dissolved in physiological saline and injected in a volume of 2 ml/kg. Testing was begun 15 min after the drug treatment.
(§2) Mating arenas were 50' cm diameter acrylic glass cages with wood shavings on the floor. The stimulus females were of Wistar strain, primed with estradiol benzoate . (20 µg/animal) 48 h prior to testing and progesterone ([…]/animal) 4-6 h before testing.
(§3) The occurrence of mounts, intromissions and ejaculations were scored by an experienced observer. The measures of masculine copulatory behavior further included mount latency and intromission latency which are time from introduction of the stimulus female to the first mount and first intromission respectively. A copulatory series includes the mounts and intromissions preceding an ejaculation. Ejaculatory latency is the time from the first .intromission in a copulatory series to the ejaculation terminating that series. The postejaculatory interval is the time from an ejaculation to the next intromission. Tests were terminated when the rat had achieved one ejaculation and started the second series of copulations, or, if the intromission latency was >15 min, the ejaculation latency was >30 min, or the postejaculatory interval was >15 min.

Male Wistar rats = assay: Hetero-sexual (masculine copulatory) behaviour in normal male rats; format: in vivo, rat; conditions: median
Method: as §1, §2, §3

central 5-HT receptors = assay: In-vivo determination of rat brain tryptophan hydroxylation (5-HTP formation) after reserpine pretreatment; conditions: reserpine-pretreated rats; for "ED70%" for 5-HTP reduction: s.c., dose giving 70 % of the control 5-HTP level, similar values for limbic forebrain, striatum and hemispheral portions
Method: b. In-vivo determination of rat brain tyrosine and tryptophan hydroxylation after reserpine pretreatment (biochemical DA- and 5-HT receptor activity).
The compounds under evaluation were tested biochemically for central DA- and 5-HT-receptor (pre- and/or postsynaptic) stimulating activity. The concept of this biochemical screening method is that a DA- or 5-HT-receptor agonist will stimulate the receptor and through regulatory feedback systems effect a decline-in tyrosine or tryptophan hydroxylating activity, respectively, and a subsequent reduction in the synthesis rate for DA and 5-HT in the presynaptic neuron. Dopa and 5-HTP formation. as determined after in-vivo inhibition of the aromatic L-amino acid decarboxylase with NSO 1015 (3-hydroxybenzylhydrazine hydrochloride) are taken as indirect measures of DA- and 5-HT-synthesis rates, respectively.
Rats (150-300 g) pretreated with reserpine (5 mg/kg, 18 h before) were given the compounds under evaluation. Gross behavioural observations (changes in motility, hindleg abduction etc; c.f. above) were made. Subsequent administration of NSD 1015, decapitation, brain dissection [cerpera striate, the limbic ferebrain and the remaining hemispheral portions (mainly cortex) of rat brain], homogenization, centrifugation, ion-exchange chromatography and spectro- fluorimetric measurements (all as described in detail by Wikström et al., J. Med. Chem., 21, 864-867, 1978 and references cited therein) gave the actual dopa and 5-HTP levels. Several doses (n=4-6) were tested for each compound and brain area. The dose of a compound giving 70 % of the control 5-HTP.level in the rat brain part was then estimated.

[1] = subgroup 3 of biochemical potency
[2] = subgroup 1 of biochemical potency

## CCCN(CCC)C1CCc2cccc(OC)c2C1 (racemic) [Compound 8, 2-(di-n-propylamino)-8-methoxytetralin]
Castrated male rats; 8 mg/kg, out of 9 rats (of the 2 with intromissions), preliminary
  castrated male rats that ejaculated: 1
Castrated male rats; 8 mg/kg, out of 9 rats (of the 5 that mounted), preliminary
  castrated male rats that made intromissions: 2
Castrated male rats; 8 mg/kg, out of 9 rats, none of 9 saline-treated showed any sexual activity, preliminary
  castrated male rats that mounted the female: 5
Castrated male rats; preliminary experiments
  sexual activity of male rats rendered sexual inactive by castration: became sexual active
Male Wistar rats; 1 mg/kg i.p., 15 min after treatment, control 2
  Mounts (number): 0^* b)
Male Wistar rats; 1 mg/kg i.p., 15 min after treatment, control 4.75
  Ejaculatory latency: 3.20 min
Male Wistar rats; 1 mg/kg i.p., 15 min after treatment, control 5.50
  Postejaculatory interval: 6.40 min
Male Wistar rats; 1 mg/kg i.p., 15 min after treatment, control 9
  Intromissions (number): 8
Male Wistar rats; 2 mg/kg i.p., 15 min after treatment, control 2
  Mounts (number): 1
Male Wistar rats; 2 mg/kg i.p., 15 min after treatment, control 4.75
  Ejaculatory latency: 2.65 min
Male Wistar rats; 2 mg/kg i.p., 15 min after treatment, control 5.50
  Postejaculatory interval: 5.05 min
Male Wistar rats; 2 mg/kg i.p., 15 min after treatment, control 9
  Intromissions (number): 7^***
Male Wistar rats; 4 mg/kg i.p., 15 min after treatment, control 2
  Mounts (number): 1^***
Male Wistar rats; 4 mg/kg i.p., 15 min after treatment, control 4.75
  Ejaculatory latency: 1.55^*** min
Male Wistar rats; 4 mg/kg i.p., 15 min after treatment, control 5.50
  Postejaculatory interval: 4.55 min
Male Wistar rats; 4 mg/kg i.p., 15 min after treatment, control 9
  Intromissions (number): 3.5^***
Male Wistar rats; 8 mg/kg i.p., 15 min after treatment, control 2
  Mounts (number): 0^**
Male Wistar rats; 8 mg/kg i.p., 15 min after treatment, control 4.75
  Ejaculatory latency: 0.45^*** min
Male Wistar rats; 8 mg/kg i.p., 15 min after treatment, control 5.50
  Postejaculatory interval: 5.05 min
Male Wistar rats; 8 mg/kg i.p., 15 min after treatment, control 9
  Intromissions (number): 1.5^***
Male Wistar rats; 16 mg/kg i.p., 15 min after treatment, control 2
  Mounts (number): 0^***
Male Wistar rats; 16 mg/kg i.p., 15 min after treatment, control 4.75
  Ejaculatory latency: 0.55^*** min
Male Wistar rats; 16 mg/kg i.p., 15 min after treatment, control 5.50
  Postejaculatory interval: 4.55 min
Male Wistar rats; 16 mg/kg i.p., 15 min after treatment, control 9
  Intromissions (number): 1^***
Central 5-HT receptors
  "ED70%" for 5-HTP reduction: 0.4 µmol/kg

## CCCN(CCC)C1CCc2cccc(OC)c2C1 (single isomer, unassigned; (+)) [(+)-8]
Male Wistar rats; 4 mg/kg i.p., 15 min after treatment, control 2, listed as (+)-8 · HCl
  Mounts (number): 1^*
Male Wistar rats; 4 mg/kg i.p., 15 min after treatment, control 4.75, listed as (+)-8 · HCl
  Ejaculatory latency: 1.05^*** min
Male Wistar rats; 4 mg/kg i.p., 15 min after treatment, control 5.50, listed as (+)-8 · HCl
  Postejaculatory interval: 6.15 min
Male Wistar rats; 4 mg/kg i.p., 15 min after treatment, control 9, listed as (+)-8 · HCl
  Intromissions (number): 2^***
Central 5-HT receptors
  "ED70%" for 5-HTP reduction: 0.2 to 0.4 µmol/kg

## CCCN(CCC)C1CCc2cccc(OC)c2C1 (single isomer, unassigned; (-)) [(-)-8]
Male Wistar rats; 4 mg/kg i.p., 15 min after treatment, control 2, listed as (-)-8 · HCl
  Mounts (number): 0.5^*
Male Wistar rats; 4 mg/kg i.p., 15 min after treatment, control 4.75, listed as (-)-8 · HCl
  Ejaculatory latency: 1.30^*** min
Male Wistar rats; 4 mg/kg i.p., 15 min after treatment, control 5.50, listed as (-)-8 · HCl
  Postejaculatory interval: 5.65 min
Male Wistar rats; 4 mg/kg i.p., 15 min after treatment, control 9, listed as (-)-8 · HCl
  Intromissions (number): 4.5^**
Central 5-HT receptors
  "ED70%" for 5-HTP reduction: 0.3 to 0.4 µmol/kg

## CCCCN(CCCC)C1CCc2cccc(OC)c2C1 (stereo not shown) [Compound 10]
Central 5-HT receptors
  "ED70%" for 5-HTP reduction: 25 µmol/kg
Central 5-HT receptors; [1]
  "ED70%": above 10 umol/kg

## CNC1CCc2cccc(O)c2C1 (stereo not shown) [Compound 14]
Central 5-HT receptors
  "ED70%" for 5-HTP reduction: 1.5 to 10 µmol/kg

## CCCNC1CCc2cccc(O)c2C1 (stereo not shown) [Compound 15]
Central 5-HT receptors
  "ED70%" for 5-HTP reduction: 0.4 µmol/kg

## CCCCNC1CCc2cccc(O)c2C1 (stereo not shown) [Compound 16]
Central 5-HT receptors
  "ED70%" for 5-HTP reduction: 6 µmol/kg

## CC(C)NC1CCc2cccc(O)c2C1 (stereo not shown) [Compound 17]
Central 5-HT receptors
  "ED70%" for 5-HTP reduction: 8 µmol/kg

## CCCCCCCCNC1CCc2cccc(O)c2C1 (stereo not shown) [Compound 18]
Central 5-HT receptors
  "ED70%" for 5-HTP reduction: 50 µmol/kg
Central 5-HT receptors; [1]
  "ED70%": above 10 umol/kg

## CCCN(CC)C1CCc2cccc(O)c2C1 (stereo not shown) [Compound 19]
Central 5-HT receptors
  "ED70%" for 5-HTP reduction: 0.09 µmol/kg

## Br.CCCN(CCC)C1CCc2cccc(O)c2C1 (stereo not shown) [Compound 20, 2-(di-n-propylamino)-8-hydroxytetralin hydrobromide]
Male Wistar rats; 4 mg/kg i.p., second experiment (N 9), control 1
  Mounts (number): 0
Male Wistar rats; 4 mg/kg i.p., second experiment (N 9), control 1.80
  Ejaculatory latency: 0.25 min
Male Wistar rats; 4 mg/kg i.p., second experiment (N 9), control 4.45
  Postejaculatory interval: 4.75 min
Male Wistar rats; 4 mg/kg i.p., second experiment (N 9), control 5
  Intromissions (number): 1^***
Central 5-HT receptors
  "ED70%" for 5-HTP reduction: 0.06 µmol/kg
Central 5-HT receptors; [2]
  "ED70%": 0.01 to 1.0 µmol/kg

## CCCCN(CCC)C1CCc2cccc(O)c2C1 (stereo not shown) [Compound 21]
Central 5-HT receptors
  "ED70%" for 5-HTP reduction: 0.5 µmol/kg
Central 5-HT receptors; [2]
  "ED70%": 0.01 to 1.0 µmol/kg

## CCCCN(CCCC)C1CCc2cccc(O)c2C1 (stereo not shown) [Compound 22]
Central 5-HT receptors
  "ED70%" for 5-HTP reduction: 8 µmol/kg

## CCCN(Cc1ccccc1)C1CCc2cccc(O)c2C1 (stereo not shown) [Compound 23]
Central 5-HT receptors
  "ED70%" for 5-HTP reduction: 3 µmol/kg

## Oc1cccc2c1CC(N1CCCCC1)CC2 (stereo not shown) [Compound 24]
Central 5-HT receptors
  "ED70%" for 5-HTP reduction: <20 µmol/kg

Reference: patent EP0041488A1, “Therapeutically useful tetralin derivatives” (Arvidsson, Folke Lars-Erik, priority 1980, dated 1981)
